Laboratory results published in US12643871B2, “Aryl formamide compound containing chiral sulfur oxide or salt thereof, preparation method, herbicidal composition and use thereof” (Qingdao Kingagroot Chemical Compound Co., Ltd., priority 2019, dated 2026).

How the values were obtained:
[1] = tested on: Digitaria sanguinalis; experiment: Comparison experiment (post-emergence) against racemate / S configuration; assay type: in vivo; conditions: 30 g/ha; 3-4 weeks after sowing, 4-5 leaf-stage of weed, 25DAA
[2] = tested on: Rice; experiment: Transplanted rice safety evaluation; assay type: in vivo, rice (japonica rice/Indica rice); conditions: 60 g/ha; transplanted 3 leaf stage rice, 21 days after treatment
Excerpt: (§1) The activity level criteria for harmful plant damage (i.e., growth control rate) are as follows: • Level 5: growth control rate is above 85%; • Level 4: growth control rate is greater than or equal to 60% and less than 85%; • Level 3: growth control rate is greater than or equal to 40% and less than 60%; • Level 2: growth control rate is greater than or equal to 20% and less than 40%; • Level 1: growth control rate is greater than or equal to 5% and less than 20%; • Level 0: growth control rate is less than 5%.
In addition, the rice field soil that loaded into the 1/1,000,000 ha pot was leveled to keep water storage at 3-4 cm depth. The 3 leaf stage rice (japonica rice/Indica rice) was transplanted at 3 cm of transplanting depth the next day. The compound of the present invention was treated by the same way after 5 days of transplantation.
(§2) The fertility condition of Echinochloa crusgali, Scirpus juncoides, Bidens tripartita, Leptochloa chinensis, Sagittaria trifolia and Monochoria vaginalis 14 days after the treatment of the compound of the invention and the fertility condition of rice 21 days after the treatment of the compound of the invention respectively with the naked eye. Evaluate the weed control effect with 0-5 activity standard level. Many compounds show excellent activity and selectivity.

[3] = tested on: Setaria viridis; experiment: Weeding effect in post-emergence stage; assay type: in vivo; conditions: 250 g/ha; 2 leaf stage; 15 days after application; fresh weight control rate
Summary of the method: (§3)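 Greenhouse pot-grown weeds were sprayed at the 2-leaf stage, 2 weeks after sowing, with compound in acetone/Tween 80 plus 1.5 L/ha methyl oleate EC, at 500, 250, 125, 60, 30 or 15 g/ha. Fresh-weight growth control was scored 15 days later on a 0–5 scale, mean of three repeats.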

[4] = tested on: Amaranthus retroflexus; experiment: Weeding effect in post-emergence stage; assay type: in vivo; conditions: 250 g/ha; 2 leaf stage; 15 days after application; fresh weight control rate
Summary of the method: as §3

[5] = tested on: Abutilon theophrasti; experiment: Weeding effect in post-emergence stage; assay type: in vivo; conditions: 250 g/ha; 2 leaf stage; 15 days after application; fresh weight control rate
Summary of the method: as §3

[6] = tested on: Digitaria sanguinalis; experiment: Weeding effect in post-emergence stage; assay type: in vivo; conditions: 250 g/ha; 2 leaf stage; 15 days after application; fresh weight control rate
Summary of the method: as §3

[7] = tested on: Echinochloa crusgali; experiment: Weeding effect in post-emergence stage; assay type: in vivo; conditions: 250 g/ha; 2 leaf stage; 15 days after application; fresh weight control rate
Summary of the method: as §3

[8] = tested on: Rice(Longyang 16); experiment: Comparison experiment (post-emergence), crop safety on direct seeding rice; assay type: in vivo
Excerpt: (§4) The above growth control rates are fresh weight control rates.
(§5) Experiment on weeding effect in post-emergence stage: monocotyledonous and dicotyledonous weed seeds (Descurainia sophia, Capsella bursa-pastoris, Galium aparine, Stellaria media, Lithospermum arvense, Rorippa indica, Alopecurus aequalis, Beckmannia syzigachne, Sclerochloa dura, Phleum paniculatum, Bromus japonicus, Aegilops tauschii, Phalaris arundinacea, Amaranthus retroflexus, Chenopodiaceae, Commelina communis, Sonchus arvensis, convolvulus arvensis, Cirsium setosum, Solanum nigrum, Acalypha australis, Digitaria sanguinalis, Echinochloa crusgalli, Setaria viridis, Setaria glauca, Leptochloa chinensis, Monochoria vaginalis, Sagittaria trifolia, Scirpus juncoides, Cyperus rotundus, Cyperus iria, Cyperus difformis, Fimbristylis, Portulaca oleracea, Xanthium sibiricum, Pharbitis nil) and major crop seeds (wheat, corn, rice, soybean, cotton, oilseed rape, millet, sorghum, potato, sesame, ricinus) were placed in plastic pots filled with soil, then covered with 0.5-2 cm of soil, allowed to grow in a good greenhouse environment. After 2 weeks of sowing, the test plants were treated in the 2 leaf stage. The tested compounds of the present invention were respectively dissolved in acetone, then added with Tween 80 and 1.5 liter/ha of emulsifiable concentrate of methyl oleate as synergist, diluted with a certain amount of water to obtain a solution with a certain concentration, and sprayed with a spray tower onto the plants. After the application, the plants were cultured for 15 days in the greenhouse, and then the experimental results of the weeding were counted. The doses of the used compounds were 500, 250, 125, 60, 30, 15 g/ha, and the averages were obtained by repeating for three times.
(§6) If there is no clear marker, the post-seedling test conditions are the same as above, and the experimental results are shown in Tables 4-7.
Longyang 16 is an important cultivated variety representative of long-grain fragrant rice in northeast China. Long-grain fragrant rice is sensitive to herbicides and prone to drug damage, especially HPPD herbicides such as mesotrione and benzobicylon. […] It was not consistent with the well-known structure-activity relationship that aryloxyphenoxypropionic acid herbicides and phenoxypropionic acid herbicides in effective form have high activity to weeds and heavy damage to crops, and in ineffective form have almost no activity.

[9] = tested on: Abutilon theophrasti; experiment: Comparison experiment (post-emergence) against racemate / S configuration; assay type: in vivo; conditions: 30 g/ha; 3-4 weeks after sowing, 4-5 leaf-stage of weed, 25DAA
Excerpt: as §4
as §5, with “After 2 weeks of sowing, the test plants were treated in the 2 leaf stage.” left out, “After the application, the plants were cultured for 15 days in the greenhouse, and then the experimental results of the weeding were counted. The doses of the used compounds were 500, 250, 125, 60, 30, 15 g/ha, and the averages were obtained by repeating for three times.” left out
as §6

[10] = tested on: Leptochloa chinensis; experiment: as above; assay type: in vivo
Excerpt: as §4
as §5, with “After 2 weeks of sowing, the test plants were treated in the 2 leaf stage.” left out, “After the application, the plants were cultured for 15 days in the greenhouse, and then the experimental results of the weeding were counted. The doses of the used compounds were 500, 250, 125, 60, 30, 15 g/ha, and the averages were obtained by repeating for three times.” left out
as §6

[11] = tested on: Green Setaria viridis; experiment: as above; assay type: in vivo; conditions: 3-4 weeks after sowing, 4-5 leaf-stage of weed
Excerpt: as §4
as §5, with “After 2 weeks of sowing, the test plants were treated in the 2 leaf stage.” left out, “After the application, the plants were cultured for 15 days in the greenhouse, and then the experimental results of the weeding were counted. The doses of the used compounds were 500, 250, 125, 60, 30, 15 g/ha, and the averages were obtained by repeating for three times.” left out
as §6

[12] = tested on: Sagittaria trifolia; experiment: Weed control effect evaluation in rice field; assay type: in vivo; conditions: 60 g/ha; rice field pot, 14 days after treatment; ALS-inhibitor resistant weed from Heilongjiang
Excerpt: as §1
(§7) Rice field soil was loaded into a 1/1,000,000 ha pot. The seeds of Echinochloa crusgali, Scirpus juncoides, Bidens tripartita, Sagittaria trifolia, Monochoria vaginalis and Leptochloa chinensis were sowed and gently covered with soil, then left to stand still in greenhouse in the state of 0.5-1 cm of water storage. The tuber of Sagittaria trifolia was planted in the next day or 2 days later. It was kept at 3-4 cm of water storage thereafter. The weeds were treated by dripping the WP or SC water diluents prepared according to the common preparation method of the compounds of the present invention with pipette homogeneously to achieve specified effective amount when Echinochloa crusgali, Scirpus juncoides, Bidens tripartita, Monochoria vaginalis and Leptochloa chinensis reached 0.5 leaf stage and Sagittaria trifolia reached the time point of primary leaf stage.
as §2

[13] = tested on: Leptochloa chinensis; experiment: Weed control effect evaluation in rice field; assay type: in vivo; conditions: 60 g/ha; rice field pot, 14 days after treatment
Excerpt: as §1, §7, §2

[14] = tested on: Monochoria vaginalis; experiment: Weed control effect evaluation in rice field; assay type: in vivo; conditions: 60 g/ha; rice field pot, 14 days after treatment; ALS-inhibitor resistant weed from Heilongjiang
Excerpt: as §1, §7, §2

[15] = tested on: Echinochloa crusgali; experiment: Weed control effect evaluation in rice field; assay type: in vivo; conditions: 60 g/ha; rice field pot, 14 days after treatment; ALS-inhibitor resistant weed from Heilongjiang
Excerpt: as §1, §7, §2

[16] = tested on: rice and other crops; experiment: Comparison experiment (post-emergence, Tables 4-7), crop safety; assay type: in vivo; conditions: dose of 125, 60, 30, 15 g/ha
Summary of the method: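 Post-emergence spray-tower application at 500, 250, 125, 60, 30, 15 g/ha to 2-leaf-stage plants; formulation acetone, Tween 80, water, 1.5 liter/ha methyl oleate emulsifiable concentrate as synergist. Fresh weight control rate scored 15 d after treatment in greenhouse, triplicate averages.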

[17] = tested on: key weeds such as Digitaria sanguinalis, Leptochloa chinensis; experiment: Comparison experiment (post-emergence, Tables 4-7), herbicidal activity on weeds not listed separately; assay type: in vivo; conditions: dose of 125, 60, 30, 15 g/ha
Summary of the method: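 Compounds are applied post-emergence by spray tower to plants at the 2 leaf stage, at rates from 15 to 500 g/ha with a methyl oleate synergist. Control is expressed on fresh weight, counted after 15 days in the greenhouse and averaged across three repetitions.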

Compound	Herbicidal effects of compounds, Rice, 0-5 activity standard level [2]	weeding effect in post-emergence stage, activity level (growth control rate), Setaria viridis [3]	weeding effect in post-emergence stage, activity level (growth control rate), Amaranthus retroflexus [4]	weeding effect in post-emergence stage, activity level (growth control rate), Abutilon theophrasti [5]	weeding effect in post-emergence stage, activity level (growth control rate), Digitaria sanguinalis [6]	weeding effect in post-emergence stage, activity level (growth control rate), Echinochloa crusgali [7]	Herbicidal effects of compounds, Sagittaria trifolia, 0-5 activity standard level [12]	Herbicidal effects of compounds, Leptochloa chinensis, 0-5 activity standard level [13]	Herbicidal effects of compounds, Monochoria vaginalis, 0-5 activity standard level [14]	Herbicidal effects of compounds, Echinochloa crusgali, 0-5 activity standard level [15]	safety to rice and other crops compared with the corresponding racemate or S configuration [16]	activity to key weeds such as Digitaria sanguinalis, Leptochloa chinensis compared with the corresponding racemate or S configuration [17]	also measured
CCC[S@@+]([O-])c1c(C(F)(F)F)ccc(C(=O)Nc2nnc(C)o2)c1F [Compound 3]	0 (Level 0: growth control rate is less than 5%)	5 (Level 5: growth control rate is above 85%)	5 (Level 5: growth control rate is above 85%)	5 (Level 5: growth control rate is above 85%)	5 (Level 5: growth control rate is above 85%)	5 (Level 5: growth control rate is above 85%)	5 (Level 5: growth control rate is above 85%)	5 (Level 5: growth control rate is above 85%)	5 (Level 5: growth control rate is above 85%)	5 (Level 5: growth control rate is above 85%)	–	–	Results of comparison experiment, Digitaria sanguinalis (30 g/ha) [1]: 100%; Results of comparison experiment, Rice(Longyang 16) (250 g/ha) ([8]; 250 g/ha, 1.5-2 leaf-stage of direct seeding rice variety Longyang 16, 25 DAA): 0%; Results of comparison experiment, Rice(Longyang 16) (500 g/ha) ([8]; 500 g/ha, 1.5-2 leaf-stage of direct seeding rice variety Longyang 16, 25 DAA): 0%; safety to rice (Longyang 16), in words ([8]; summary of Table 5): higher safety; Results of comparison experiment, Abutilon theophrasti (30 g/ha) [9]: 100%; Results of comparison experiment, Leptochloa chinensis (60 g/ha) ([10]; 60 g/ha, 3-4 weeks after sowing, 4-5 leaf-stage of weed, 25DAA): 85%; Results of comparison experiment, Leptochloa chinensis (125 g/ha) ([10]; 125 g/ha, 3-4 weeks after sowing, 4-5 leaf-stage of weed, 25 DAA (Table 5)): 100%; activity against key weeds such as Leptochloa chinensis, in words ([10]; summary of Table 5): better activity; Results of comparison experiment, Green Setaria viridis (30 g/ha) ([11]; 30 g/ha, 25 DAA (Table 5)): 75%; Results of comparison experiment, Green Setaria viridis (60 g/ha) ([11]; 60 g/ha, 25DAA): 100%
CCCC[S@@+]([O-])c1c(C(F)(F)F)ccc(C(=O)Nc2nnc(C)o2)c1F [Compound 4]	0 (Level 0: growth control rate is less than 5%)	5 (Level 5: growth control rate is above 85%)	5 (Level 5: growth control rate is above 85%)	5 (Level 5: growth control rate is above 85%)	5 (Level 5: growth control rate is above 85%)	5 (Level 5: growth control rate is above 85%)	5 (Level 5: growth control rate is above 85%)	5 (Level 5: growth control rate is above 85%)	5 (Level 5: growth control rate is above 85%)	5 (Level 5: growth control rate is above 85%)	higher safety	better activity	–
Cc1nnc(NC(=O)c2ccc(C(F)(F)F)c([S@+]([O-])CCCF)c2F)o1 [Compound 26]	0 (Level 0: growth control rate is less than 5%)	5 (Level 5: growth control rate is above 85%)	5 (Level 5: growth control rate is above 85%)	5 (Level 5: growth control rate is above 85%)	5 (Level 5: growth control rate is above 85%)	5 (Level 5: growth control rate is above 85%)	5 (Level 5: growth control rate is above 85%)	5 (Level 5: growth control rate is above 85%)	5 (Level 5: growth control rate is above 85%)	5 (Level 5: growth control rate is above 85%)	higher safety	better activity	–
